≈ marks a conversion by molar mass, not a printed value.
Legend:
[1] = test system: Staphylococcus aureus; experiment: Antibacterial activity against vancomycin-resistant Staphylococcus aureus assessed as bacterial growth inhibition incubated for 18 to 24 hrs by CLSI-based microdilution method; assay type: functional; settings: time 18-24 hrs
[2] = test system: Staphylococcus aureus; experiment: Antibacterial activity against methicillin-resistant Staphylococcus aureus assessed as inhibition of bacterial growth measured after 24 hrs by broth micro-dilution method; assay type: functional
[3] = test system: Staphylococcus aureus; experiment: Antibacterial activity against […] Staphylococcus aureus ATCC 29213 assessed as reduction in bacterial growth incubated for 16 to 20 hrs by CLSI based two-fold serial dilution method; assay type: functional; settings: time 16-20 hrs
[4] = test system: Staphylococcus aureus; experiment: Antibacterial activity against Methicillin-resistant Staphylococcus aureus AUMC 261 assessed as bacterial growth inhibition incubated for 24 hrs by broth microdilution analysis; assay type: functional
[5] = test system: Staphylococcus aureus; experiment: Antibacterial activity against Staphylococcus aureus ATCC 43300 assessed as microbial inhibition incubated for 24 hrs by broth micro-dilution method; assay type: functional
[6] = target: DNA gyrase (Staphylococcus aureus, UniProt P0A0K8+P20831); experiment: Inhibition of Staphylococcus aureus DNA gyrase incubated for 30 mins by fluorescence based analysis; assay type: protein-complex assay
Chain of DNA gyrase (P0A0K8 whole entry): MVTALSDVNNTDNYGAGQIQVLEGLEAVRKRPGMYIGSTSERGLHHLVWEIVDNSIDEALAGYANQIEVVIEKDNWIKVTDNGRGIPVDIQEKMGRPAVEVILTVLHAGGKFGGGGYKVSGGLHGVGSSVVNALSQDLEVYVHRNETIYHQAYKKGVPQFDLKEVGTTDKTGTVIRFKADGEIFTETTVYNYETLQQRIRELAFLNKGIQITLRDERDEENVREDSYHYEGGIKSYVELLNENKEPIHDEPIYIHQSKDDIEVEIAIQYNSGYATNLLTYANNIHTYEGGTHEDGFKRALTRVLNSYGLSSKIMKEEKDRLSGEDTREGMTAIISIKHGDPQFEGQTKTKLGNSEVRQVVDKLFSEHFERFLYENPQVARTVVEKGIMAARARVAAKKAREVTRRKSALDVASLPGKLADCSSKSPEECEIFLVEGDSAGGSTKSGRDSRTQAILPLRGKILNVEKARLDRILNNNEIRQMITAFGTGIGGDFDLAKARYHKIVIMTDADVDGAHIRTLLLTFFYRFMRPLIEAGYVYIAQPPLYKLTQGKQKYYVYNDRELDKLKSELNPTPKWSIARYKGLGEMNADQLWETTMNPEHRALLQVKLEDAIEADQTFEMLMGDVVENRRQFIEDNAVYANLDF
Chain of DNA gyrase (P20831 whole entry): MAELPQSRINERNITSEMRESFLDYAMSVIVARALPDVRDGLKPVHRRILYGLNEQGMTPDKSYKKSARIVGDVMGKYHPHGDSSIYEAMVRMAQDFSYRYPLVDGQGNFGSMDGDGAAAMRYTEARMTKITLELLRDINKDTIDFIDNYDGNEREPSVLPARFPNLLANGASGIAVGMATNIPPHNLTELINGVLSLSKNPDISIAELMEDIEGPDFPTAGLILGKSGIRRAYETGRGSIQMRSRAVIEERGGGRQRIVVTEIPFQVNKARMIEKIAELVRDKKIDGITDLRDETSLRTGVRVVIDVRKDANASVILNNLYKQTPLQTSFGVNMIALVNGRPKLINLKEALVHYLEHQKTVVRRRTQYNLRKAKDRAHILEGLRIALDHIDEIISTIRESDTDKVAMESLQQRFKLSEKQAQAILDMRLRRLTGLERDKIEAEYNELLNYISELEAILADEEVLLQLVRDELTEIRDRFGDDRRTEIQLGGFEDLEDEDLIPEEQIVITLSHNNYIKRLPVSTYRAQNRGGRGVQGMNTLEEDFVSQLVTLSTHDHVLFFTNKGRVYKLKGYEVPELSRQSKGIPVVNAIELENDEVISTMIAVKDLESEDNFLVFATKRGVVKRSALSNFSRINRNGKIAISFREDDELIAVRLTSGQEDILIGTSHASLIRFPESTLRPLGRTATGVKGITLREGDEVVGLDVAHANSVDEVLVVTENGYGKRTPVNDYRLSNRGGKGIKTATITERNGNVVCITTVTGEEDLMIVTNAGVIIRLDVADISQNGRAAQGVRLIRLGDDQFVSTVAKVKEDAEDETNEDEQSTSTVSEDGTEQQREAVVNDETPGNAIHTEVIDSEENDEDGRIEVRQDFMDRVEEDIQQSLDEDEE

[7] = test system: Staphylococcus aureus; experiment: Antimicrobial activity against methicillin-resistant Staphylococcus aureus assessed as inhibition of microbial growth incubated for 16 hrs by microdilution method; assay type: functional, organism-based
[8] = test system: Escherichia coli; experiment: Antibacterial activity against Escherichia coli ATCC 25922 assessed as reduction in bacterial growth incubated for 18 to 24 hrs by broth microdilution method; assay type: functional; settings: time 18-24 hrs
[9] = test system: Staphylococcus aureus; experiment: Antibacterial activity against Methicillin-resistant Staphylococcus aureus […] assessed as reduction in microbial growth incubated for 18 to 24 hrs by broth micro-dilution method; assay type: functional; settings: time 18-24 hrs
[10] = test system: Staphylococcus aureus; experiment: Antimicrobial activity against […] Staphylococcus aureus ATCC 29213 assessed as reduction in bacterial viability incubated for 18 hrs by CLSI protocol based Muller Hinton broth based dilution assay; assay type: functional
[11] = test system: Enterococcus faecium; experiment: Antimicrobial activity against Vancomycin-resistant Enterococcus faecium assessed as reduction in bacterial viability incubated for 18 hrs by CLSI protocol based Muller Hinton broth based dilution assay; assay type: functional
[12] = test system: Staphylococcus aureus; experiment: Antibacterial activity against […] Staphylococcus aureus ATCC 6538 assessed as bacterial growth inhibition incubated for 24 hrs by broth micro-dilution method; assay type: functional
[13] = test system: Escherichia coli; experiment: Antibacterial activity against Escherichia coli ATCC 35210 assessed as reduction in bacterial growth measured for 24 hrs by broth micro-dilution method; assay type: functional
[14] = test system: Escherichia coli; experiment: Antibacterial activity against Escherichia coli ATCC 25922 assessed as reduction in bacterial growth by broth microdilution method; assay type: functional
[15] = test system: Staphylococcus aureus; experiment: Antibacterial activity against methicillin-resistant Staphylococcus aureus ATCC 33592 assessed as reduction in bacterial growth; assay type: functional
[16] = test system: Staphylococcus aureus; experiment: Antibacterial activity against Methicillin-resistant Staphylococcus aureus […] assessed as reduction in microbial growth; assay type: functional
[17] = test system: Escherichia coli; experiment: Antibiofilm activity against Escherichia coli ATCC 25922 assessed as reduction in biofilm formation at 50 uM incubated for 24 hrs by crystal violet staining based analysis relative to control; assay type: functional; parameters: scale not given: the % may be the effect or the level left
[18] = test system: Staphylococcus aureus; experiment: Antimicrobial activity against Methicillin-resistant Staphylococcus aureus ATCC BAA41 assessed as bacterial growth inhibition measured after 18 hrs by CLSI based Muller Hinton broth microdilution method; assay type: functional
[19] = test system: Staphylococcus aureus; experiment: Antimicrobial activity against Methicillin-resistant Staphylococcus aureus ATCC 33591 assessed as bacterial growth inhibition measured after 18 hrs by CLSI based Muller Hinton broth microdilution method; assay type: functional
[20] = test system: Staphylococcus aureus; experiment: Antimicrobial activity against Methicillin-resistant Staphylococcus aureus ATCC 43300 assessed as bacterial growth inhibition measured after 18 hrs by CLSI based Muller Hinton broth microdilution method; assay type: functional
[21] = test system: Staphylococcus aureus; experiment: Antibacterial activity against Staphylococcus aureus ATCC 49444 assessed as reduction in microbial growth; assay type: functional
[22] = test system: Staphylococcus aureus; experiment: Antibacterial activity against Methicillin-sensitive Staphylococcus aureus ATCC 6538 assessed as reduction in microbial growth; assay type: functional
[23] = test system: Pseudomonas aeruginosa; experiment: Antibacterial activity against Pseudomonas aeruginosa assessed as reduction in bacterial growth by broth microdilution method; assay type: functional
[24] = test system: Escherichia coli; experiment: Antibacterial activity against Escherichia coli ATCC 35210 assessed as reduction in bacterial growth by broth microdilution method; assay type: functional
[25] = test system: Staphylococcus aureus; experiment: Antibacterial activity against Methicillin-resistant Staphylococcus aureus assessed as reduction of microbial growth by Muller Hinton broth based dilution assay; assay type: functional
[26] = test system: Escherichia coli; experiment: Antibacterial activity against Escherichia coli ATCC 35210 assessed as reduction in microbial growth; assay type: functional
[27] = test system: Staphylococcus aureus; experiment: Antibacterial activity against Methicillin-resistant Staphylococcus aureus ATCC 43300 clinical isolate assessed as reduction in microbial growth incubated for 16 to 20 hrs by CLSI based two-fold serial dilution method; assay type: functional; settings: time 16-20 hrs
[28] = test system: Staphylococcus aureus; experiment: Antibacterial activity against […] Staphylococcus aureus ATCC 6538 assessed as reduction in bacterial growth incubated for 24 hrs by broth micro-dilution method; assay type: functional
[29] = test system: Staphylococcus aureus; experiment: Antibacterial activity against clinical isolate Methicillin resistant Staphylococcus aureus 2658 RCMB assessed as reduction in microbial growth incubated for 16 to 24 hrs by CLSI-based Muller Hinton broth based microdilution method; assay type: functional; settings: time 16-24 hrs
[30] = test system: Staphylococcus aureus; experiment: Antimicrobial activity against Methicillin-resistant Staphylococcus aureus ATCC 43300 assessed as bacterial growth inhibition incubated for 18 hrs by broth micro-dilution method; assay type: functional
[31] = test system: Staphylococcus aureus; experiment: Antibacterial activity against Methicillin-resistant Staphylococcus aureus ATCC 43300 assessed as reduction in bacterial growth measured for 24 hrs by CLSI based broth microdilution method; assay type: functional
[32] = test system: Staphylococcus aureus; experiment: Antibacterial activity against Methicillin-sensitive Staphylococcus aureus ATCC 43300 assessed as reduction in microbial growth by CLSI based broth microdilution method; assay type: functional

Which MIC [1] does the source give for `O=C(O)CCN(c1ccc(Nc2ccccc2)cc1)c1nc(-c2ccc(F)cc2)cs1` here?
Its MIC is 1 µg/mL (≈ 2.31 µM).

With `Cc1cnc(/C=c2\[nH]c(=O)/c(=C\c3cccc(F)c3)s2)s1` as the compound, how does the MIC [2] read?
The MIC was 40 µg/mL (≈ 126 µM).

How did the MIC [3] turn out when `CCCCCNc1ccc(S(=O)(=O)CC(=O)c2nccs2)cc1` was run?
The MIC was 1 µg/mL (≈ 2.84 µM).

For `O=C(O)c1cn(C2CC2)c2cc(N3CCN(C(=O)CN4C(=O)S/C(=C\c5ccc(F)cc5)C4=O)CC3)c(F)cc2c1=O`, which MIC [4] is on record?
The MIC was 2.88 µg/mL (≈ 4.84 µM).

How did the MIC [5] turn out when `O=S(=O)(c1ccc2nc3s/c(=N/N=C\c4cccs4)n(-c4ccc(Cl)cc4)c3nc2c1)N1CCOCC1` was run?
The MIC was 1.25 µg/mL (≈ 2.19 µM).

And the IC50 [6]?
Its IC50 is 10.4 µM.

`CO/N=C(/COc1ccc2c(C)cc(=O)oc2c1)c1nccs1` was tested. Which IC50 [7] did it give?
The IC50 was 1 µg/mL.

For `COc1ccc(N/N=C2/S/C(=N\N=C3/C(=O)Nc4ccc(Br)cc43)N=C2C)cc1`, which MIC [8] is on record?
The MIC was 1 µg/mL (≈ 2.12 µM).

And the MIC [9]?
Its MIC is 1 µg/mL.

Which MIC [10] does the source give for `CCCN(CCC)CCCN1/C(=C/c2c3ccccc3[n+](C)c3c2oc2ccccc23)Sc2ccccc21.[I-]` here?
The MIC was 0.25 µg/mL.

And the MIC [11]?
The MIC was 0.25 µg/mL.

For `COc1ccc(/C=c2/s/c(=C/c3ncc(C)s3)[nH]c2=O)cc1`, which MIC [2] is on record?
The MIC was 40 µg/mL (≈ 121 µM).

For `CCOc1ccc2nc(N3C(=O)CSC3c3ccc(OC)cc3)sc2c1` (stereo unspecified), which MIC [12] is on record?
The MIC was 90 µg/mL (≈ 233 µM).

Which MIC [13] does the source give for `Cc1[nH]c2ccc(Cl)cc2c1-c1csc(N)n1` here?
The MIC was 60 µg/mL (≈ 227 µM).

What about the MIC [14] of the same compound?
Its MIC is 60 µg/mL (≈ 227 µM).

What about the MIC [15] of the same compound?
The MIC was 100 µg/mL (≈ 379 µM).

And the MIC [16]?
Its MIC is 230 µg/mL.

Which results are given for `CCOC1=NC(=N/N=C2\C(=O)Nc3ccc(Br)cc32)/S/C1=N/Nc1ccccc1`?
MIC [8]: 4 µg/mL (≈ 8.49 µM); MIC [9]: 8 µg/mL; Activity [17]: 90%

What does the source list for `CN1/C(=C/c2cc(/C=C/c3cccnc3)[n+](C)c3ccccc23)Sc2ccccc21.[I-]`?
MIC [18]: 1.5 µg/mL; MIC [19]: 1.5 µg/mL; MIC [20]: 1.5 µg/mL

How did the MIC [21] turn out when `O=c1c2ccccc2nc(C(c2nccs2)c2nccs2)n1-c1ccc(F)cc1` was run?
Its MIC is 32 µg/mL.

For `COc1cc(CCN)c(-c2csc(-c3ccc(O)cc3)n2)cc1OC`, which MIC [22] is on record?
The MIC was 700 µg/mL.

And the MIC [23]?
Its MIC is under 230 µg/mL.

And the MIC [24]?
The MIC was under 230 µg/mL.

For `O=C(/C(=C/c1ccc(-c2ccc(Cl)cc2Cl)cc1)Oc1ccc2c(CN(CCO)CCO)cc(=O)oc2c1)c1nccs1`, which MIC [25] is on record?
The MIC was 4 µg/mL.

How did the MIC [26] turn out when `N#Cc1c(N2CCN(CC(=O)Nc3nccs3)CC2)nc(-c2ccco2)c2c1CCC2` was run?
Its MIC is 230 µg/mL.

Which MIC [27] does the source give for `Cc1cc(/C=C2\Sc3ccccc3N2CCCN2CCC(C)CC2)c2ccccc2[n+]1C.[I-]` here?
Its MIC is 2 µg/mL.

For `O=C1CSC(c2ccc([N+](=O)[O-])cc2)N1c1nc2ccc(Cl)cc2s1` (stereo unspecified), which MIC [28] is on record?
The MIC was 100 µg/mL (≈ 255 µM).

How did the MIC [12] turn out when `O=C1CSC(c2ccc([N+](=O)[O-])cc2)N1c1nc2c(Cl)cccc2s1` (stereo unspecified) was run?
The MIC was 90 µg/mL (≈ 230 µM).

How did the MIC [25] turn out when `O=C(/C(=C/c1ccc(-c2ccc([N+](=O)[O-])cc2)cc1)Oc1ccc2c(CN(CCO)CCO)cc(=O)oc2c1)c1nccs1` was run?
The MIC was 4 µg/mL.

`Cc1nc(-c2ccc3ccccc3c2)sc1-c1nnc(NC(=N)N2CCN(C)CC2)o1` was tested. Which MIC [29] did it give?
The MIC was 1.9 µg/mL.

Which MIC [4] does the source give for `O=C(O)c1cn(C2CC2)c2cc(N3CCN(C(=O)CN4C(=O)S/C(=C\c5ccc([N+](=O)[O-])cc5)C4=O)CC3)c(F)cc2c1=O` here?
Its MIC is 2.88 µg/mL (≈ 4.63 µM).

With `CC(C)Cc1nc(N2CCN(CC(=O)Nc3nccs3)CC2)c(C#N)c2c1CCC2` as the compound, how does the MIC [26] read?
The MIC was 230 µg/mL.

How did the MIC [4] turn out when `O=C(O)c1cn(C2CC2)c2cc(N3CCNCC3)c(F)cc2c1=O` [CIPROFLOXACIN] was run?
The MIC was 0.2 µg/mL (≈ 0.604 µM).

And the MIC [30]?
The MIC was 32 µg/mL (≈ 96.6 µM).

What does the source list for `CN[C@H](CC(C)C)C(=O)N[C@H]1C(=O)N[C@@H](CC(N)=O)C(=O)N[C@H]2C(=O)N[C@H]3C(=O)N[C@H](C(=O)N[C@H](C(=O)O)c4cc(O)cc(O)c4-c4cc3ccc4O)[C@H](O)c3ccc(c(Cl)c3)Oc3cc2cc(c3O[C@@H]2O[C@H](CO)[C@@H](O)[C@H](O)[C@H]2O[C@H]2C[C@](C)(N)[C@H](O)[C@H](C)O2)Oc2ccc(cc2Cl)[C@H]1O` [VANCOMYCIN]?
MIC50 [31]: 4 µg/mL (≈ 2.76 µM); MIC90 [32]: 16 µg/mL; MIC [2]: 1.95 µg/mL (≈ 1.35 µM)
